Results on 14 compounds are retold here after US20230167073A1 (Teijin Pharma Limited, priority 2020, published 2023).

The assay has as its target T1, Human TRPC6 (Homo sapiens, UniProt Q9Y210).
T1 construct: expressed in transfected cells
T1 sequence (Q9Y210 1-931): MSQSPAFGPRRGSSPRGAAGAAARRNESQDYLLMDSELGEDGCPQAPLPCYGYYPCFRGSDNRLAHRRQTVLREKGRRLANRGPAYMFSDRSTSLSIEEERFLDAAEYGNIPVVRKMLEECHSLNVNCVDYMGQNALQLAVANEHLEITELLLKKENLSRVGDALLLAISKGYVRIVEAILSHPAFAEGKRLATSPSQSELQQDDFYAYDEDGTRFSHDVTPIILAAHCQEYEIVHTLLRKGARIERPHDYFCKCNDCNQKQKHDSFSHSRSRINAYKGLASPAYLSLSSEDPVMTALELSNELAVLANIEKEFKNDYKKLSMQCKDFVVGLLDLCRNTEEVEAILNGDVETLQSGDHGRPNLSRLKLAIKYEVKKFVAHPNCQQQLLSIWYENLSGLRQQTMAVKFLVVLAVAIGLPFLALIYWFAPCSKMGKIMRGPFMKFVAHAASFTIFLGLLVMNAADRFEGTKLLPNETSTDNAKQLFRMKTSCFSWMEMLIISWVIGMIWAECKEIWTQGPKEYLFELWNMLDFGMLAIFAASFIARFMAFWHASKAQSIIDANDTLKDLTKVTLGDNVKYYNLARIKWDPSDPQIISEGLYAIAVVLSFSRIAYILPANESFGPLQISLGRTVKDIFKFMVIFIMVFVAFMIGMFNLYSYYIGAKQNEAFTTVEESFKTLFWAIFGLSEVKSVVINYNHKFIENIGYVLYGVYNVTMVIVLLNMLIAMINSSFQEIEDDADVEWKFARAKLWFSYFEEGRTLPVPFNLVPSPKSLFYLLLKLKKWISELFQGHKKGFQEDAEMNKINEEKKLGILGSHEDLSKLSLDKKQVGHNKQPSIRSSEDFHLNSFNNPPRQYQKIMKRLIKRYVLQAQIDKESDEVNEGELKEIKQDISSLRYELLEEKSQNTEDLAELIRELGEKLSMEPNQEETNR
The assay is described as follows: Evaluation of TRPC6 channel inhibitory activity (1), FLIPR Calcium 5 Assay Kit, OAG stimulation (Compound Nos. 1-1293). The format is cell-based. Particulars: Human TRPC6 stably-expressing cells, OAG 30 μM, FLIPR Calcium 5 Assay Kit; read-out: Inhibitory activity (pIC50 class) (converted). In a few lines: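 Calcium influx read by FLIPR fluorescence in cells stably expressing human TRPC6, dye-loaded 30 min. Compounds preincubated 20 min, then OAG stimulation at 30 μM final. Inhibition fitted by four-parameter logistic regression to give pIC50, reported as +/++/+++ categories.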
Take `Cn1nc(-c2nccs2)cc1Oc1cc(C#N)ccc1-c1ccc([C@H](O)CN)cn1` [compound 536, 4-[5-[(1S)-2-amino-1-hydroxyethyl]pyridin-2-yl]-3-[2-methyl-5-(1,3-thiazol-2-yl)pyrazol-3-yl]oxybenzonitrile]: the IC50 is below 10 nM.

As to `N#Cc1ccc(-c2ccc(C(N)C(=O)O)cn2)c(Oc2cnnc(-c3ccccc3)c2)c1` (centres unmarked) [compound 433, 2-amino-2-[6-[4-cyano-2-(6-phenylpyridazin-4-yl)oxyphenyl]pyridin-3-yl]acetic acid], the IC50 was 10 to 1000 nM. For the compound `Cc1cc(Oc2cc(C#N)ccc2-c2ccc([C@H](O)CN)cn2)cc(-c2ncco2)n1` [compound 690, 4-[5-[(1S)-2-amino-1-hydroxyethyl]pyridin-2-yl]-3-[2-methyl-6-(1,3-oxazol-2-yl)pyridin-4-yl]oxybenzonitrile], the IC50 is 10 to 1000 nM.

Turning to `CC(C)c1cc(Oc2cc(F)ccc2-c2ncc(CN)cn2)n(C)n1` [compound 1012, [2-[4-fluoro-2-(2-methyl-5-propan-2-ylpyrazol-3-yl)oxyphenyl]pyrimidin-5-yl]methanamine], the IC50 is below 10 nM. In the case of `Cc1c(CN2CCN[C@@H](C)C2)cc(-c2ccc(C#N)cc2Oc2cc(C3CC3)nn2C)c2nccn12` [compound 497, 3-(5-cyclopropyl-2-methylpyrazol-3-yl)oxy-4-[5-methyl-6-[[(3S)-3-methylpiperazin-1-yl]methyl]imidazo[1,2-a]pyridin-8-yl]benzonitrile] it was above 1000 nM; in that of `N#Cc1ccc(-c2ncc(CN)cn2)c(Oc2cc(N3CCCCC3)nnc2Cl)c1` [compound 815, 4-[5-(aminomethyl)pyrimidin-2-yl]-3-(3-chloro-6-piperidin-1-ylpyridazin-4-yl)oxybenzonitrile], 10 to 1000 nM; in that of `Cn1nc(C2CC2)cc1Oc1cc(C#N)ccc1-c1ccc(CN)cn1` [compound 327, 4-[5-(aminomethyl)pyridin-2-yl]-3-(5-cyclopropyl-2-methylpyrazol-3-yl)oxybenzonitrile], below 10 nM.

Consider `Cc1nc(NC(C)(C)C)cc(Oc2cc(C#N)ccc2-c2ncc(CN)cn2)n1` [compound 637, 4-[5-(aminomethyl)pyrimidin-2-yl]-3-[6-(tert-butylamino)-2-methylpyrimidin-4-yl]oxybenzonitrile], for which the IC50 is below 10 nM. On to `Cn1nc(C2CCOCC2)cc1Oc1cc(F)ccc1-c1ncc(CN)cn1` [compound 1007, [2-[4-fluoro-2-[2-methyl-5-(oxan-4-yl)pyrazol-3-yl]oxyphenyl]pyrimidin-5-yl]methanamine], for which the IC50 was 10 to 1000 nM.

As for `COCCNc1cc(Oc2cc(C#N)ccc2-c2ncc(CN)cn2)nc(C)n1` [compound 639, 4-[5-(aminomethyl)pyrimidin-2-yl]-3-[6-(2-methoxyethylamino)-2-methylpyrimidin-4-yl]oxybenzonitrile], the IC50 was above 1000 nM. With `Cn1nc(C2CC2)cc1Oc1cc(C#N)ccc1-c1cccc(CN)n1` [compound 480, 4-[6-(aminomethyl)pyridin-2-yl]-3-(5-cyclopropyl-2-methylpyrazol-3-yl)oxybenzonitrile], the IC50 is above 1000 nM. Consider `Cc1nc(OCC(C)(C)C)cc(Oc2cc(C#N)ccc2-c2ccc(CCN)cc2)n1` [Compound 47, 4-[4-(2-Aminoethyl)phenyl]-3-[6-(2,2-dimethylpropoxy)-2-methylpyrimidin-4-yl]oxybenzonitrile], for which the IC50 is 10 to 1000 nM. On to `Cc1cc(Oc2cc(C#N)ccc2-c2ccc([C@H](O)CN)cn2)cc(N2CCOC(C)(C)C2)n1` [compound 531, 4-[5-[(1S)-2-amino-1-hydroxyethyl]pyridin-2-yl]-3-[2-(2,2-dimethylmorpholin-4-yl)-6-methylpyridin-4-yl]oxybenzonitrile], for which the IC50 was below 10 nM. In the case of `Cc1nc(Oc2cc(C#N)ccc2-c2ccc(CCN)cc2)cc(N2CCC(F)(F)CC2)n1` [Compound 18, 4-[4-(2-aminoethyl)phenyl]-3-[6-(4,4-difluoropiperidin-1-yl)-2-methylpyrimidin-4-yl]oxybenzonitrile], the IC50 is 10 to 1000 nM.
